From patent publication US20220213086A1, “AZOLE COMPOUNDS AS IRAK INHIBITORS, PREPARATION METHODS AND MEDICINAL USES THEREOF” (Eternity Bioscience Inc., priority 2020, published 2022)
Like-named read-outs stand apart in the source and are kept apart here.

Key:
[1] = molecular target: T1, full length human IRAK4 protein (Homo sapiens, UniProt Q9NWZ3); assay: IRAK4 biochemical assay (Promega ADP-Glo IRAK4 Kinase Enzyme System); conditions: 3 nM enzyme, 2 μM MBP, 250 μM ATP, 60 min at room temperature
T1 construct: Purified full length human IRAK4 protein; purchased Signal Chem 1112-10G-125
T1 sequence (Q9NWZ3 1-460): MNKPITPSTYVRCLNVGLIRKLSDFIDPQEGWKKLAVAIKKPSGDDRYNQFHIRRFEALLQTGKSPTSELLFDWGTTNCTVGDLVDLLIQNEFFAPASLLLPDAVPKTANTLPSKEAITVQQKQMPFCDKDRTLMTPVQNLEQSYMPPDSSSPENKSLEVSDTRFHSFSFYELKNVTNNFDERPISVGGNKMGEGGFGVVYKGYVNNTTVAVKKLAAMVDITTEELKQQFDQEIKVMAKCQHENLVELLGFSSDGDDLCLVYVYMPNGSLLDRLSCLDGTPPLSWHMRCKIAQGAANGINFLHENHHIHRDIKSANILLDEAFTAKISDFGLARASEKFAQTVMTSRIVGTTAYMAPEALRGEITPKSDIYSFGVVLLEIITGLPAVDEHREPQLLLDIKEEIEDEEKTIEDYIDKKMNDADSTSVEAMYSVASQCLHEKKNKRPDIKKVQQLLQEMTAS
Description: For the routine compound screening, an IRAK4 kinase assay was performed as follows using Promega ADP-Glo IRAK4 Kinase Enzyme System (Promega, Cat #2198-AD). Purified full length human IRAK4 protein (Signal Chem; Cat #1112-10G-125) was diluted to a concentration 6 nM in assay buffer (25 mM MOPS, pH 7.2, 12.5 mM β-glycerol-phosphate, 25 mM MgCl2, 5 mM EGTA, 2 mM EDTA, 0.0025% Brij-35, add 0.25 mM DTT to Kinase Assay Buffer prior to use) containing IRAK4 inhibitor at 2× the final concentration in 0.4% DMSO. The reaction was performed in PerkinElmer Proxiplate-384 plus white plate (Fisher Scientific, Cat #50-905-2761) and started by the addition of an equal volume of the assay buffer containing 4 μM native swine myelin basic protein (MBP) and 500 μM ATP to achieve a final concentration of 3 nM enzyme, 2 μM MBP, 250 μM ATP, 1×compound, and 0.2% DMSO. The kinase reaction was allowed to run for 60 min at room temperature (25-27° C.), then 5 μL of ADP-Glo was added to the reaction in each well followed by 40 minutes-incubation at RT. To detect converted ATP, 10 μL Detection Buffer was added into each well and Incubate at RT in dark for 30 minutes. Finally, luminescence was read using Tecan with 1000 ms of integration time. The luminescent signal positively correlates with ADP amount and kinase activity. Data was analyzed by GraphPad Prism and IC50 was calculated using function log(inhibitor) vs. response—Variable slope (four parameters). Percentage of inhibition was calculated as below:
% inhibition=(1−(Reading(Sample)−Reading(Negative Control))/(Reading(Positive Control)−Reading(Negative Control)))×100%
The 0% inhibition value comes from the Reading of Positive Control wells having 0 nM compound. The 100% inhibition value comes from the Reading of Negative Control wells having no IRAK4 kinase.

[2] = tested on: IRAK4 (TNFα in human peripheral blood mononuclear cells); assay: IRAK4 human PBMC TNFα cell based assay (AlphaLISA); conditions: TNFα readout
Description: In this assay, serially diluted compounds were incubated with 1×10^4 human peripheral blood mononuclear cells (PBMCs) from STEMCELL (Cat #70025.1) per well of 384-well plate (Fisher Scientific; 50-905-2761) and cultured with TexMACS medium (Miltenyi, Cat #130-097-196), stimulated by R848 (0.5 μM) or IL-1β (10 ng/ml). Plates were covered with lids and incubated for 4 h (R848, Fisher Scientific, Cat #NC9801605) or 24 h (IL-1β, Fisher Scientific, Cat #ENRIL1BI) at 37° C. in a humidified tissue-culture incubator. After a brief centrifugation at 1000 rpm for 5 minutes, 5 μl of culture medium was used for the measurement of the TNFα amount using TNFα (human) AlphaLISA Detection Kit (PerkinElmer, Cat #AL208C) according to manufacturer's protocol. A biotinylated anti-TNFα antibody binds to the Streptavidin-coated Donor beads while another anti-TNFα antibody is conjugated to AlphaLISA Acceptor beads. In the presence of the TNFα, the beads come into close proximity. The excitation of the Donor beads causes the release of singlet oxygen molecules that triggers a cascade of energy transfer in the Acceptor beads, resulting in a sharp peak of light emission at 615 nm. AlphaLISA assay plates were read using PHERAstar. Percentage of inhibition was calculated as below:
% inhibition=(1−(Reading(Sample)−Reading(Negative Control))/(Reading(Positive Control)−Reading(Negative Control)))×100% […]

Compound | IC50 [1] | IRAK4 Biochemical Assay Max Inhibition (%) [1] | IC50 ([2]; human PBMCs stimulated by IL-1β (10 ng/ml), 24 h, read-out: IRAK4 PBMC AlphaLISA IL-1β (IC50)) | IC50 ([2]; human PBMCs stimulated by R848 (0.5 μM), 4 h, read-out: IRAK4 PBMC AlphaLISA R848 (IC50))
CC[C@@H]1[C@H](F)C(=O)N[C@@H]1COc1nsc2cc(C(N)=O)c(OC)cc12 [Example 2] | 0.014 µM | 93.0% | 0.026 µM | 0.021 µM
COc1cc2c(OC[C@@H]3CCC(=O)N3)nsc2cc1C(N)=O [Example 1, (S)-5-methoxy-3-((5-oxopyrrolidin-2-yl)methoxy)benzo[d]isothiazole-6-carboxamide] | 0.24 µM | 98.0% | – | –
